Measurements as given in US10722501B2 (BAYER AKTIENGESELLSCHAFT, priority 2016, dated 2020).

biological target: T1, recombinant full-length human prolyl endopeptidase (PREP) (Homo sapiens, UniProt P48147); test: Biochemical human prolyl endopeptidase (PREP) assay with fluorescently labelled substrate; conditions: substrate Z-Gly-Pro-AMC 50 μM, 32° C., 60 min; some as mean values from multiple independent determinations
T1 construct: To recombinant full-length human prolyl endopeptidase (PREP, R&D-Systems, 4308-SE); purchased R&D-Systems 4308-SE
T1 sequence (P48147 1-710): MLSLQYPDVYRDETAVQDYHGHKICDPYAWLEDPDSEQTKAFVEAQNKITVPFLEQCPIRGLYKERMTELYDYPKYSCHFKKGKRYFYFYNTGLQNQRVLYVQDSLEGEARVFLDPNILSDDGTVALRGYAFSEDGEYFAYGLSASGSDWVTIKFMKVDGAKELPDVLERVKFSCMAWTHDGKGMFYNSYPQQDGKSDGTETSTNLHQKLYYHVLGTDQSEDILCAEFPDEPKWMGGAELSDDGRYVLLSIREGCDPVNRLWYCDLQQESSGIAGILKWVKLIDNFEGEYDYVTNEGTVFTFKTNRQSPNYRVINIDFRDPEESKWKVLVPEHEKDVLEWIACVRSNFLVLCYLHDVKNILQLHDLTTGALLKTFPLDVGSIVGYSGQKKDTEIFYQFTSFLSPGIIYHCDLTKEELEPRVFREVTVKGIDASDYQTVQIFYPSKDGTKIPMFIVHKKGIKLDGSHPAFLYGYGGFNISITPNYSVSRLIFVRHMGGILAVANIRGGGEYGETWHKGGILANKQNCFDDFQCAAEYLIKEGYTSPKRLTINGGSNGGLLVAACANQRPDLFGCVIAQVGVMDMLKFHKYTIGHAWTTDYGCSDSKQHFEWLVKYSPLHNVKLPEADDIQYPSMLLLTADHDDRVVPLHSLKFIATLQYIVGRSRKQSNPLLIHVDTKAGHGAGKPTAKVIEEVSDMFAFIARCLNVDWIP
Procedure: B-1 Biochemical Human Prolyl Endopeptidase (PREP) Assay for Identification of Inhibitors of PREP Activity Using a Fluorescently Labelled Substrate Principle of the Assay:
The enzymatic conversion of the fluorescent peptide substrate was observed on the basis of the measurement of the fluorescence intensity. The enzyme activity was determined by the ascertaining of the initial slope in the increase in fluorescence. Compounds that inhibit PREP were identified on the basis of the decrease in the initial slope compared to a reaction mixture without test compound.
Determination of Activity:
IC50 values were determined by the plotting of the percentage PREP activity against the concentration of the test substance by interpolation.
To recombinant full-length human prolyl endopeptidase (PREP, R&D-Systems, 4308-SE; final concentration, for example, 0.4 nM, volume: 25 μl) in reaction buffer (50 mM Tris-HCl, pH 7.5; 150 mM NaCl; 0.13% BSA, 5 mM EDTA, 3 mM GSH, 0.005% Brij-35) was added a test compound (in DMSO, in an appropriate final concentration range from 1 nM to 30 μM, volume: 1 μl) in a well of a 384-well microtitre plate. The reaction was initiated by adding the substrate Z-Gly-Pro-AMC (final concentration 50 μM; Z=carboxybenzyl; AMC=7-amino-4-methylcoumarin, volume: 25 μl). The progress of the PREP reaction was observed by measuring the fluorescence intensity in a Tecan SAFIRE II plate spectrophotometer at 32° C. over a period of 60 min (excitation wavelength: 360 nm, emission wavelength: 465 nm).
Table B-1 below collates the IC50 values thus obtained from the human prolyl endopeptidase assay for individual working examples of the invention (some as mean values from multiple independent individual determinations).

| Structure (SMILES) | IC50 [nM] |
| --- | --- |
| O=C(C1C(C(F)(F)F)CCc2nn(Cc3ncc(Cl)cc3F)c(=O)n21)N1CC(F)C1 (racemic) [Example 308, (5RS,6RS)-2-[(5-Chloro-3-fluoropyridin-2-yl)methyl]-5-[(3-fluoroazetidin-1-yl)carbonyl]-6-(trifluoromethyl)-5,6,7,8-tetrahydro[1,2,4]triazolo[4,3-a]pyridin-3(2H)-one] | 125 |
| O=C(C1CC(C(F)(F)F)Cc2nn(Cc3ccc(C(F)(F)F)nc3)c(=O)n21)N1CC[C@H](F)C1 (mixture of isomers) [Example 235, (5RS,7RS)-5-{[(3S)-3-Fluoropyrrolidin-1-yl]carbonyl}-7-(trifluoromethyl)-2-{[6-(trifluoromethyl)pyridin-3-yl]methyl}-5,6,7,8-tetrahydro[1,2,4]triazolo[4,3-a]pyridin-3(2H)-one] | 6.8 |
| Cc1nc(-c2ccc(Cn3nc4n(c3=O)C(C(=O)N3CCCC3)CCC4)cc2)no1 (racemic) [Example 10, (5RS)-2-[4-(5-Methyl-1,2,4-oxadiazol-3-yl)benzyl]-5-(pyrrolidin-1-ylcarbonyl)-5,6,7,8-tetrahydro[1,2,4]triazolo[4,3-a]pyridin-3(2H)-one] | 24 |
| Cc1ccc(Cn2nc3n(c2=O)C(C(=O)N2CC(O)C2)CCC3)cc1 (racemic) [Example 120, (5RS)-5-[(3-Hydroxyazetidin-1-yl)carbonyl]-2-(4-methylbenzyl)-5,6,7,8-tetrahydro[1,2,4]triazolo[4,3-a]pyridin-3(2H)-one] | 9.6 |
| O=C([C@@H]1CCCc2nn(Cc3ncc(C(F)(F)F)cc3Cl)c(=O)n21)N1CC[C@@H](F)C1 [Example 401, (5S)-2-{[3-Chloro-5-(trifluoromethyl)pyridin-2-yl]methyl}-5-{[(3R)-3-fluoropyrrolidin-1-yl]carbonyl}-5,6,7,8-tetrahydro[1,2,4]triazolo[4,3-a]pyridin-3(2H)-one] | 3.4 |
| Cc1ccc(Cn2nc3n(c2=O)C(C(=O)N2CCC(C)CC2)CCC3)cc1 (racemic) [Example 160, (5RS)-2-(4-Methylbenzyl)-5-[(4-methylpiperidin-1-yl)carbonyl]-5,6,7,8-tetrahydro[1,2,4]triazolo[4,3-a]pyridin-3(2H)-one] | 32 |
| Cc1ccc(Cn2nc3n(c2=O)C(C(=O)N2CCCC2)CC(C(F)(F)F)C3)cc1 (single isomer, unassigned) [Example 226, (5RS,7RS)-2-(4-Methylbenzyl)-5-(pyrrolidin-1-ylcarbonyl)-7-(trifluoromethyl)-5,6,7,8-tetrahydro[1,2,4]triazolo[4,3-a]pyridin-3(2H)-one] | 3.6 |
| O=C(C1C(C(F)(F)F)CCc2nn(Cc3ncc(Cl)cc3F)c(=O)n21)N1CC[C@H](F)C1 (single isomer, unassigned) [Example 295] | 12 |
| CC(c1ccc(Cl)cc1)n1nc2n(c1=O)C(C(=O)N1CCCC1)CCC2 (racemic) [Example 3, (5RS)-2-[(1 RS)-1-(4-Chlorophenyl)ethyl]-5-(pyrrolidin-1-ylcarbonyl)-5,6,7,8-tetrahydro[1,2,4]triazolo[4,3-a]pyridin-3(2H)-one] | 6 |

Now those with a lower IC50, led by results:

| IC50 [nM] | Structure (SMILES) |
| --- | --- |
| 3.3 | O=C([C@@H]1CCC(F)(F)c2nn(Cc3ccc(C(F)(F)F)nc3)c(=O)n21)N1CC[C@H](F)C1 [Example 278, (5S)-8,8-Difluoro-5-{[(3S)-3-fluoropyrrolidin-1-yl]carbonyl}-2-{[6-(trifluoromethyl)pyridin-3-yl]methyl}-5,6,7,8-tetrahydro[1,2,4]triazolo[4,3-a]pyridin-3(2H)-one] |
| 2.8 | O=C([C@@H]1CCCc2nn(Cc3ccnc(C(F)(F)F)c3F)c(=O)n21)N1CCC(F)(F)C1 [Example 482, (5S)-5-[(3,3-Difluoropyrrolidin-1-yl)carbonyl]-2-{[3-fluoro-2-(trifluoromethyl)pyridin-4-yl]methyl}-5,6,7,8-tetrahydro[1,2,4]triazolo[4,3-a]pyridin-3(2H)-one] |
| 2.3 | O=C([C@@H]1CCCc2nn(CC3(c4ccc(F)cc4)CC3)c(=O)n21)N1CCC(F)(F)C1 [Example 353, (5S)-5-[(3,3-Difluoropyrrolidin-1-yl)carbonyl]-2-{[1-(4-fluorophenyl)cyclopropyl]methyl}-5,6,7,8-tetrahydro[1,2,4]triazolo[4,3-a]pyridin-3(2H)-one] |
| 2 | O=C(C1CC(C(F)(F)F)Cc2nn(Cc3ccc(Cl)nc3)c(=O)n21)N1CC[C@H](F)C1 (mixture of isomers) [Example 242, (5RS,7RS)-2-[(6-Chloropyridin-3-yl)methyl]-5-{[(3S)-3-fluoropyrrolidin-1-yl]carbonyl}-7-(trifluoromethyl)-5,6,7,8-tetrahydro[1,2,4]triazolo[4,3-a]pyridin-3(2H)-one] |
| 1.9 | O=C([C@@H]1CC=Cc2nn(Cc3ccc(C(F)(F)F)nc3)c(=O)n21)N1C[C@@H](F)[C@@H](F)C1 [Example 558, (5S)-5-{[(3R,4S)-3,4-Difluoropyrrolidin-1-yl]carbonyl}-2-{[6-(trifluoromethyl)pyridin-3-yl]methyl}-5,6-dihydro[1,2,4]triazolo[4,3-a]pyridin-3(2H)-one] |
| 1.4 | Cc1ccc(Cn2nc3n(c2=O)C(C(=O)N2CCC(=O)C2)CCC3)cc1 (single isomer, unassigned) [Example 119, (5RS)-2-(4-Methylbenzyl)-5-[(3-oxopyrrolidin-1-yl)carbonyl]-5,6,7,8-tetrahydro[1,2,4]triazolo[4,3-a]pyridin-3(2H)-one] |
| 1.3 | Cc1ccc(C2(Cn3nc4n(c3=O)[C@H](C(=O)N3CC(F)C3)CCC4)CC2)cc1 [Example 355, (5S)-5-[(3-Fluoroazetidin-1-yl)carbonyl]-2-{[1-(4-methylphenyl)cyclopropyl]methyl}-5,6,7,8-tetrahydro[1,2,4]triazolo[4,3-a]pyridin-3(2H)-one] |
| 1.1 | O=C([C@@H]1CCCc2nn(Cc3ccnc(C(F)(F)F)c3)c(=O)n21)N1CC[C@H](F)C1 [Example 450, (5S)-5-{[(3S)-3-Fluoropyrrolidin-1-yl]carbonyl}-2-{[2-(trifluoromethyl)pyridin-4-yl]methyl}-5,6,7,8-tetrahydro[1,2,4]triazolo[4,3-a]pyridin-3(2H)-one] |
| 0.715 | O=C([C@@H]1CCCc2nn(Cc3cnc(C(F)(F)F)c(Cl)c3)c(=O)n21)N1C[C@@H](F)[C@@H](F)C1 [Example 440, (5S)-2-{[5-Chloro-6-(trifluoromethyl)pyridin-3-yl]methyl}-5-{[(3R,4S)-3,4-difluoropyrrolidin-1-yl]carbonyl}-5,6,7,8-tetrahydro[1,2,4]triazolo[4,3-a]pyridin-3(2H)-one] |
| 0.42 | Cc1ccc(Cn2nc3n(c2=O)[C@H](C(=O)N2CC[S+]([O-])C2)CCC3)cc1 (single isomer, unassigned) [Example 193] |
| 0.35 | O=C([C@@H]1CCCc2nn(CC3(c4cccc(Cl)n4)CC3)c(=O)n21)N1CC[C@H](F)C1 [Example 350, (5S)-2-{[1-(6-Chloropyridin-2-yl)cyclopropyl]methyl}-5-{[(3S)-3-fluoropyrrolidin-1-yl]carbonyl}-5,6,7,8-tetrahydro[1,2,4]triazolo[4,3-a]pyridin-3(2H)-one] |
| 0.27 | O=C([C@@H]1CCCc2nn(Cc3ccc(F)c(Cl)c3)c(=O)n21)N1C[C@@H](F)[C@@H](F)C1 [Example 456, (5S)-2-(3-Chloro-4-fluorobenzyl)-5-{[(3R,4S)-3,4-difluoropyrrolidin-1-yl]carbonyl}-5,6,7,8-tetrahydro[1,2,4]triazolo[4,3-a]pyridin-3(2H)-one] |
